For 8 molecules, half-life, IC50 and inhibition results are on record in patent US12435072B2, “Compounds” (Vicore Pharma AB, priority 2019, dated 2025).

SMILES strings stand for the structures. pIC50: −log10 of the molar value. Where two headings read alike, the source gives them in different places.

Data set [1] can be described thus: Metabolic stability in pooled human liver microsomes. Type of data set: in vitro ADME. The conditions noted are these: pooled human liver microsomes 0.5 mg/ml, 1 μM test compound, 37° C. Here is the method: Pooled human liver microsomes in PBS at a concentration of 0.5 mg/ml was incubated with or without 1 mM NADPH for 70 min at 37° C. Test compound was added after 10 minutes to a final concentration of 1 μM. Samples were withdrawn at 0, 5, 15 and 60 minutes and added to test tubes containing acetonitrile, to stop the reaction, and with terfenadine, used as internal standard. After centrifugation at 10 000×g for 5 minutes the supernatant was diluted 1:1 with 1% formic acid. Samples were separated on a reverse phase column and detected by triple quadrupole MSMS (Agilant model 6540). The concentration of the parent compound at the different time points was measured with an external standard curve using terfenadine as internal standard and the initial metabolic rate in the presence or absence of NADPH calculated.
In general terms: Liver microsomes are a subcellular fraction often used to study metabolism.

Data set [2] concerns the target T1, human recombinant AT2 receptor (Homo sapiens, UniProt P50052).
T1 construct: purchased Eurofins ITEM26
T1 sequence (P50052 1-363): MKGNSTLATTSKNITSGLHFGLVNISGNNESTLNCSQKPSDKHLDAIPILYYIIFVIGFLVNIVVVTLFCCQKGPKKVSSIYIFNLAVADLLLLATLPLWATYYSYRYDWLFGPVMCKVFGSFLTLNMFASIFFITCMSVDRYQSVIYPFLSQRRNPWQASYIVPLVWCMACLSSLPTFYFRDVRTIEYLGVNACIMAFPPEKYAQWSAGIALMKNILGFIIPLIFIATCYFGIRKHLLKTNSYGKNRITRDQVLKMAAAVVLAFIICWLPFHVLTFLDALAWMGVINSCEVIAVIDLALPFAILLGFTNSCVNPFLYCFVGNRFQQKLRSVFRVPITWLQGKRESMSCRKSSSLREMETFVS
In words: Binding to AT2 receptor, radiometric scintillation assay (Eurofins). As to conditions: ligand 125I CGP 42112A, tested at 1, 10, 100 and 1000 nM. Here is the method:
(§1) Compounds were evaluated for binding to the human recombinant AT2 and AT1 receptor according to Eurofins protocol ITEM26 and ITEM24 using a radiometric scintillation assay.

Data set [3] has as its target T2, human recombinant AT1 receptor (Homo sapiens, UniProt P30556).
T2 construct: purchased Eurofins ITEM24
T2 sequence (P30556 1-359): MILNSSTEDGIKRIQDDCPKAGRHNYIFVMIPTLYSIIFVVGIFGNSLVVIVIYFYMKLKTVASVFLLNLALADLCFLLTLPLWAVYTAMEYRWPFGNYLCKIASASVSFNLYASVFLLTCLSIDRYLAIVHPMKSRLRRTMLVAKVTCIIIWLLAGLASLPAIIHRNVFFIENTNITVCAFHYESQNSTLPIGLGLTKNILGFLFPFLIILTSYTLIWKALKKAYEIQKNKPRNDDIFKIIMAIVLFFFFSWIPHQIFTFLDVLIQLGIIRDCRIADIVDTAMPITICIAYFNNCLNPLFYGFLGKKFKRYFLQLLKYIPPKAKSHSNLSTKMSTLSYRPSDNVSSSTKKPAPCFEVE
In words: Binding to AT1 receptor, radiometric scintillation assay (Eurofins). The conditions noted are these: ligand 125I(sar1,Ile8)-AT-II, tested at 1 and 10 μM. The procedure: as §1

In the next data set the target is T3, CYP1A (Homo sapiens, UniProt P05177).
T3 construct: incubated with human liver microsomes; tissue Eurofins ITEMG232; host or cells: human liver microsomes
T3 sequence (P05177 1-516): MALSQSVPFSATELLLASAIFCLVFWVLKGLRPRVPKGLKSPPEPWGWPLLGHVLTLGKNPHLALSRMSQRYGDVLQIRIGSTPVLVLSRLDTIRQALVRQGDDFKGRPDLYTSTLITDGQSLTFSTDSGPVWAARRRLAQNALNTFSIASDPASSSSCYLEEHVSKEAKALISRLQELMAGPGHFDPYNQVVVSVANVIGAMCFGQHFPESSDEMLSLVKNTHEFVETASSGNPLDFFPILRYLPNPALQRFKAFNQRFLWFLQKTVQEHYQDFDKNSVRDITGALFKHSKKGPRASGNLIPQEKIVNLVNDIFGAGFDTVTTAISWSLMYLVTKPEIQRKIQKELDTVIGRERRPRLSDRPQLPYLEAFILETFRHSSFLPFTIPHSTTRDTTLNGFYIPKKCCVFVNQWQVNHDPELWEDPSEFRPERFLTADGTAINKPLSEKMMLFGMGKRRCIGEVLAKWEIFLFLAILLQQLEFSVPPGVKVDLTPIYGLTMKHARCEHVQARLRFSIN
In words: CYP inhibition in human liver microsomes, CYP1A. As to conditions: probe phenacetin, substrate phenacetin, read-out: CYP1A Inh %. In kind it is in vitro ADME. The procedure: (§2) The following substrates were used: CYP1A phenacetin, CYP2B6 bupropion, CYP2C8 paclitaxel and amodiaquine, CYP2C9 diclofenac, CYP2C19 omeprazole, CYP2D6 dextromethorphan, CYP3A midazolam and testosterone. At the end of the incubation, the formation of metabolite was monitored by HPLC-MS/MS as the peak area response.

The target in another data set is T4, CYP2C8 (Homo sapiens, UniProt P10632).
T4 construct: incubated with human liver microsomes; tissue Eurofins ITEMG232; host or cells: human liver microsomes
T4 sequence (P10632 1-490): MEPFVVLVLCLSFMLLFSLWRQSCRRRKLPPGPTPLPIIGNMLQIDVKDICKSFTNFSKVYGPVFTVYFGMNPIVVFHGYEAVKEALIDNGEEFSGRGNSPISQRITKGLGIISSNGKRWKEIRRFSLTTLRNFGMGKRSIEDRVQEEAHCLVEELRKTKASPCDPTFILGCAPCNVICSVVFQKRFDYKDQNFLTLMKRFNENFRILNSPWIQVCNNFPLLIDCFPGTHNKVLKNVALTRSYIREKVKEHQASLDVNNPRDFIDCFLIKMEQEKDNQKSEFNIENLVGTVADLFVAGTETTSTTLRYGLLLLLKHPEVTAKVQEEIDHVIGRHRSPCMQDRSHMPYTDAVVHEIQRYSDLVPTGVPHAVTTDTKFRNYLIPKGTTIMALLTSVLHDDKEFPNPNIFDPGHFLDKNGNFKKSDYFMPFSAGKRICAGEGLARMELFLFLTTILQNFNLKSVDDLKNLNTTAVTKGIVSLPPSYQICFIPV
Briefly: CYP inhibition in human liver microsomes, CYP2C8. Type of data set: in vitro ADME. The conditions noted are these: probe paclitaxel and amodiaquine, substrate paclitaxel and amodiaquine, read-out: CYP2C8 Inh %. The procedure, abridged: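 For CYP2D6 inhibition, dextromethorphan was the substrate; diclofenac served for CYP2C9, while CYP2C8 activity was followed with paclitaxel and amodiaquine. Formation of each metabolite at incubation end was recorded as HPLC-MS/MS peak area.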

Another data set relates to CYP3A4&5. In words: CYP inhibition in human liver microsomes, CYP3A4&5 (testosterone). In kind it is in vitro ADME. The conditions noted are these: probe testosterone, substrate testosterone, read-out: CYP3A4&5 testosterone Inh %. Here is the method: as §2
For a further data set, the target named is CYP3A4 (Homo sapiens, UniProt P08684). Briefly: CYP inhibition in human liver microsomes, CYP3A4 (midazolam). In kind it is in vitro ADME. Details: incubated with human liver microsomes; tissue Eurofins ITEMG232; host or cells: human liver microsomes. As to conditions: probe midazolam, substrate midazolam, read-out: CYP3A4 midazolam Inh %. Here is the method:
as §2

Where [4] appears, read: with 1 mM NADPH, read-out: T1/2, + NaDPH.
Where [5] appears, read: without NADPH, read-out: T1/2, no NaDPH.

Chain of CYP3A4 (P08684 whole entry): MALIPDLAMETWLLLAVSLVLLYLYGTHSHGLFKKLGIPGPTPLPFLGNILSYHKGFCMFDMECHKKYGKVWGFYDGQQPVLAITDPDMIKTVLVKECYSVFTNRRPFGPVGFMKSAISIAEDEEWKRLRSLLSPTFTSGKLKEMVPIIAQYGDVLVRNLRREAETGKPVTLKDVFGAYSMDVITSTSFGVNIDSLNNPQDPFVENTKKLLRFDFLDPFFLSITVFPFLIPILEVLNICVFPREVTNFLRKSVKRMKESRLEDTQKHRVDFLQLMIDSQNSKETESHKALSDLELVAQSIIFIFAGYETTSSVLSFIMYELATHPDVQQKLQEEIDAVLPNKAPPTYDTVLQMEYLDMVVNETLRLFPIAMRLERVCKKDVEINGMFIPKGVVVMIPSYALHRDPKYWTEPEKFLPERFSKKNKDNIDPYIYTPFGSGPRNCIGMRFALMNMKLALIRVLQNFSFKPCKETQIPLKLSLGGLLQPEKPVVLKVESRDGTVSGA

What is called pIC50 is the negative decadic logarithm of the IC50, by convention in mol/L. As to `Cc1nccn1Cc1ccc(-c2cc(CC(C)C)sc2S(=O)(=O)NC(=O)NCc2ccccc2)cc1` [Example 1, 1-benzyl-3-[[5-isobutyl-3-[4-[(2-methylimidazol-1-yl)methyl]phenyl]-2-thienyl]sulfonyl]urea], the values for the half-life at 1 μM in data set [1] (setting [4]) and in data set [1] (setting [5]) were 0.4 h and above 1 h, respectively. Also, the figures for the negative logarithm of the IC50 (pIC50) in data set [2] and in data set [3] were 8.40 and below 6.00, respectively. The inhibition at 10 µM on CYP1A was found to be 7.3%; at CYP2C8, 40%; in the data set on CYP3A4&5, 21.4%; on CYP3A4, 41.3%.
In the case of `Cc1nccn1Cc1ccc(-c2cc(CC(C)C)sc2S(=O)(=O)NC(=O)NCc2ccccn2)cc1` [Example 2, 3-(5-isobutyl-3-{p-[(2-Methyl-1H-imidazol-1-yl)methyl]phenyl}-2-thienylsulfonyl)-1-[(2-pyridyl)methyl]urea], the half-life at 1 μM in data set [1] (setting [4]) and in data set [1] (setting [5]) was above 1 h throughout. In addition, the negative-log IC50 (pIC50) in data set [2] is 8.26; in data set [3] it was below 5.00. Moreover, the inhibition at 10 µM on CYP1A came to 5%; on CYP2C8, 52.8%; in the data set on CYP3A4&5 it was 0.3%; on CYP3A4, 22.1%.
`CCCCNC(=O)NS(=O)(=O)c1sc(CC(C)C)cc1-c1ccc(Cn2ccnc2C)cc1` [Example 4, 1-Butyl-3-(5-isobutyl-3-{p-[(2-methyl-1H-imidazol-1-yl)methyl]phenyl}-2-thienylsulfonyl)-urea]: the half-life at 1 μM in data set [1] (setting [4]) is 0.65 h; in data set [1] (setting [5]), above 1 h. Further, the pIC50 in data set [2] is 7.98; in data set [3] it was below 5.00. Also, the inhibition at 10 µM is 10.5% at CYP1A, 47.2% on CYP2C8, 8.2% in the data set with CYP3A4&5 and 17.1% on CYP3A4.
For the molecule `Cc1nccn1Cc1ccc(-c2cc(CC(C)C)sc2S(=O)(=O)NC(=O)NCCCC(F)(F)F)cc1` [Example 5, 3-(5-isobutyl-3-{p-[(2-Methyl-1H-imidazol-1-yl)methyl]phenyl}-2-thienylsulfonyl)-1-(4,4,4-trifluorobutyl)-urea], the half-life at 1 μM in data set [1] (setting [4]) is 0.417 h; in data set [1] (setting [5]), above 1 h. Also, the pIC50 in data set [2] was 7.83; in data set [3], below 5.00. Besides, the inhibition at 10 µM at CYP1A turned out to be 7.3%; on CYP2C8 it was 49.3%; with CYP3A4&5, 14.7%; on CYP3A4, 26.7%.
For `CCc1nccn1Cc1ccc(-c2cc(CC(C)C)sc2S(=O)(=O)NC(=O)NCc2ccccc2)cc1` [Example 6, 1-Benzyl-3-(3-{p-[(2-ethyl-1H-imidazol-1-yl)methyl]phenyl}-5-isobutyl-2-thienylsulfonyl)-urea], the results for the half-life at 1 μM in data set [1] (setting [4]) and in data set [1] (setting [5]) were 0.4 h and above 1 h, respectively. For the same molecule, the values for the pIC50 in data set [2] and in data set [3] were 8.46 and below 6.00, respectively. The inhibition at 10 µM on CYP1A worked out at 6.8%; on CYP2C8, 76.2%; in the data set with CYP3A4&5, 13.2%; at CYP3A4, 28.5%.
On to `CCc1nccn1Cc1ccc(-c2cc(CC(C)C)sc2S(=O)(=O)NC(=O)NCCOC)cc1` [Example 7, 3-(3-{p-[(2-Ethyl-1H-imidazol-1-yl)methyl]phenyl}-5-isobutyl-2-thienylsulfonyl)-1-(2-methoxy-ethyl)urea], for which the half-life at 1 μM in data set [1] (setting [4]) and in data set [1] (setting [5]) was above 1 h in each case. Moreover, the pIC50 is 7.82 in data set [2] and below 5.00 in data set [3]. Moreover, the inhibition at 10 µM was 10.6% at CYP1A, 38.6% at CYP2C8, 3% in the data set on CYP3A4&5 and 10.1% on CYP3A4.
For the molecule `Cc1nccn1Cc1ccc(-c2cc(CC(C)C)sc2S(=O)(=O)NC(=O)NCc2ccccn2)cc1F` [Example 13, 3-(3-{3-Fluoro-4-[(2-methyl-1H-imidazol-1-yl)methyl]phenyl}-5-isobutyl-2-thienylsulfonyl)-1-[(2-pyridyl)methyl]urea], the half-life at 1 μM in data set [1] (setting [4]) and in data set [1] (setting [5]) was above 1 h each time. The pIC50 is 9.28 in data set [2] and 4.59 in data set [3]. Further, the inhibition at 10 µM at CYP1A came to 16%; at CYP2C8 it was 77%; in the data set with CYP3A4&5, 9%; on CYP3A4 it was 80%.
Turning to `Cc1nccn1Cc1ccc(-c2cc(CC(C)C)sc2S(=O)(=O)NC(=O)NCCC(F)(F)F)cc1F` [Example 14, 3-(3-{3-Fluoro-4-[(2-methyl-1H-imidazol-1-yl)methyl]phenyl}-5-isobutyl-2-thienylsulfonyl)-1-(3,3,3-trifluoropropyl)urea], the half-life at 1 μM was 1.5 h in data set [1] (setting [4]) and above 1 h in data set [1] (setting [5]). Further, the pIC50 was 8.48 in data set [2] and 4.60 in data set [3]. The inhibition at 10 µM at CYP1A is 13%; at CYP2C8 it was 78%; with CYP3A4&5 it was 33%; at CYP3A4 it was 30%.
